In paper PMC6731595, “The anti-parasitic agent suramin and several of its analogues are inhibitors of the DNA binding protein Mcm10” (Open Biology, 2019):
Entries after “also recorded” stand apart in the source; their conditions may differ. Counter-ions that a name gives are not always drawn.

Assays:
[1] = target: T1, human RPA70AB (A and B DNA binding domains of RPA70) (Homo sapiens, UniProt P27694); assay: Fluorescence polarization competition assay, displacement of 5′-6FAM ssDNA probe from RPA70AB; details: for Ki: predominant low-affinity (or only) component, mean ± s.e.m., n ≥ 3, read-out: fluorescence polarization hRPA70AB Ki2; for selectivity RPA/ hMcm10: ratio of hRPA70AB Ki2 to hMcm10-ID Ki (FP); for selectivity for hMcm10 over RPA70AB: FP
T1 construct: recombinant human RPA70AB (181-422) in a pSV281 vector; 6xHis (TEV site) (N, cleaved yes); made in house; host or cells: Escherichia coli BL21(DE3)
T1 sequence (P27694 181-422): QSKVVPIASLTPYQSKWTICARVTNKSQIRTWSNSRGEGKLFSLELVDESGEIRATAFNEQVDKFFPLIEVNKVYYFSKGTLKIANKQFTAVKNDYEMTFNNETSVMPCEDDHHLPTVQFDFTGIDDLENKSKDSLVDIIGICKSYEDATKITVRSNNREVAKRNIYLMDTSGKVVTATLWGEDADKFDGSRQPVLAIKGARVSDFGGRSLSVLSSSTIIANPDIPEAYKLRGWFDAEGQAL
Protocol: A fluorescence polarization (FP) HTS assay was established to detect inhibitors of the binding of the 5′-6FAM 10-mer oligo probe to Mcm10. Test compounds dissolved in DMSO were added to 384-well plates (Corning 4514) using an Echo 550 acoustic dispenser (final DMSO 0.1%) to achieve a final single point screening concentration of 10 µM. Then 10 µl of 2× Xenopus internal domain Mcm10 (xMcm10-ID, final concentration 2 µM) in binding buffer (20 mM Tris HCl, 100 mM NaCl, 5% glycerol, and 0.01% triton, pH 7.5) was added using the Combi nL Multidrop dispenser. Finally, 10 µl of 2× 5′-6FAM DNA (final 12.5 nM) in binding buffer was added using the Multidrop. DMSO (0.1%, high signal) and probe only (low signal) controls were included on every plate. Plates were mixed for 2 min, incubated for 60 min at RT in the dark, and read on a CLARIOstar multimode plate reader (excitation: 482-16, emission: 530-40, dichroic filter: LP504).
The LOPAC pilot screen identified the sulfhydryl reagent 4-chloromercuribenzoic acid as an inhibitor in the fluorescence polarization (FP) assay. As there was no known Mcm10 inhibitor, 4-chloromercuribenzoic acid (30 μM) was used as a positive control on initial screening plates. Following the discovery of suramin as a Mcm10 inhibitor, suramin (7 μM) was used as a positive control on subsequent screening plates. To confirm activity, screening hits were tested in dose response experiments (8 concentrations in duplicate) using xMcm10-ID. Similar dose response experiments were conducted with suramin and its analogs to confirm activity for hMcm10-ID (1 μM) and xMcm10-FL (2 μM) and to determine selectivity relative to RPA70AB (0.4 μM). Saturation experiments for each protein were conducted using increasing concentrations of protein with a fixed probe concentration (12.5 nM). FP was measured in mP units, and ∆mP values for each well were calculated as the difference between the measured mP and the average of the “probe only” controls. […] The parallel and perpendicular mP values were also used to calculate total fluorescence intensity (TFI) determined by the sum of parallel mP + (2 x perpendicular mP). TFI was used to detect fluorescence interference by compounds [1]. […] IC50 values were calculated using the four parameter logistic equation in Prism 6.0 (GraphPad). Ki values were obtained using an online Ki calculator according to the equations of Nikolovska-Coleska (http://sw16.im.med.umich.edu/soft-ware/calc_ki/). KD values were calculated using the one site or two site binding equations in Prism 6.0 (GraphPad).

[2] = system: DNA replication of sperm chromatin in Xenopus egg extracts; assay: In vitro DNA replication assay in Xenopus S-phase egg extracts ([α-32P]dGTP incorporation); format: biochemical; details: 10, 50, 150 and 300 µM
Protocol: Xenopus egg extracts were prepared according to the method of Murray. Replication of sperm chromatin in S-phase egg extracts was monitored as previously described. Compounds identified by HTS were added to replication reactions immediately prior to addition of [α-^32P]dGTP (Perkin Elmer BLU514H250UC).
To determine whether the four remaining confirmed HTS hits affected DNA replication, in vitro replication assays were performed using Xenopus S-phase egg extracts incubated with sperm chromatin [25, 34]. DNA replication was measured in the presence of bronopol, fumarprotocetraric acid, iriginol and suramin or DMSO by the incorporation of [α-^32P]dGTP. […] For this reason, further studies focused on suramin alone.
Figure 1. Suramin inhibits DNA replication in an in vitro Xenopus replication assay. HTS hits were evaluated for inhibition of [α-^32P]dGTP incorporation into DNA using a cell-free extract prepared from Xenopus eggs at increasing concentrations (10, 50, 150 and 300 µM indicated by black triangle from right to left). No chemical (–) and DMSO were used as negative controls for replication inhibition (far left and far right lanes).

Row | Structure (SMILES) | Ki [1] | selectivity RPA/ hMcm10 [1] | selectivity for hMcm10 over RPA70AB [1] | DNA replication, [α-32P]dGTP incorporation (result in words) [2]
1 | Cc1nc(/N=N/c2ccc(S(=O)(=O)O)cc2S(=O)(=O)O)c(COP(=O)(O)O)c(C=O)c1O [PPADS, pyridoxalphosphate-6-azophenyl-2’, 4’-disulfonic acid tetrasodium salt] | > 1000 µM | >59 | greater than 50 fold | 
2 | Cc1nc(/N=N/c2cc(S(=O)(=O)O)ccc2S(=O)(=O)O)c(COP(=O)(O)O)c(C=O)c1O [iso-PPADS, pyridoxalphosphate-6-azophenyl-2’, 5’-disulfonic acid tetrasodium salt] | > 1000 µM | >56 | greater than 50 fold | 
3 | Cc1ccc(C(=O)Nc2ccc(S(=O)(=O)O)c3cc(S(=O)(=O)O)cc(S(=O)(=O)O)c23)cc1NC(=O)c1cccc(NC(=O)Nc2cccc(C(=O)Nc3cc(C(=O)Nc4ccc(S(=O)(=O)O)c5cc(S(=O)(=O)O)cc(S(=O)(=O)O)c45)ccc3C)c2)c1 [suramin, suramin sodium salt] | 2.5 ± 0.1 µM | 3 |  | dose-dependent decrease in replication products; also recorded: dose-dependent decrease in DNA replication

Further lines, with some results ahead:

Row | Ki [1] | selectivity RPA/ hMcm10 [1] | selectivity for hMcm10 over RPA70AB [1] | Structure (SMILES) | DNA replication, [α-32P]dGTP incorporation (result in words) [2]
4 | 11 ± 1 µM | 6 |  | O=C(Nc1cccc(C(=O)Nc2ccc(S(=O)(=O)O)c3cc(S(=O)(=O)O)cc(S(=O)(=O)O)c23)c1)Nc1cccc(C(=O)Nc2ccc(S(=O)(=O)O)c3cc(S(=O)(=O)O)cc(S(=O)(=O)O)c23)c1 [NF023] | 
5 | 1.9 ± 0.1 µM | 11 | more than 10 fold | O=C(Nc1cccc(C(=O)Nc2cc(C(=O)Nc3ccc(S(=O)(=O)O)c4cc(S(=O)(=O)O)cc(S(=O)(=O)O)c34)ccc2F)c1)Nc1cccc(C(=O)Nc2cc(C(=O)Nc3ccc(S(=O)(=O)O)c4cc(S(=O)(=O)O)cc(S(=O)(=O)O)c34)ccc2F)c1 [NF157] | 
